Consider 6 compounds from patent US6090787A, “Antithrombotic agents” (Eli Lilly and Company, priority 1999, dated 2000).

The target of one assay is T1, factor Xa (Homo sapiens, UniProt P00742).
T1 construct: Human factors X, Xa, IXa, XIa, and XIIa are purchased from Enzyme Research Laboratories; purchased Enzyme Research Laboratories, South Bend, Ind
The assay can be described thus: Serine protease selectivity, Kass, factor Xa chromogenic assay. It counts as biochemical. Particulars: apparent association constant. The method, then: (§1) By substantially following the procedures described above for human thrombin, and using other human blood coagulation system serine proteases and proteases of the fibrinolytic system with the appropriate chromogenic substrates, identified below, selectivity of the compounds of the present invention with respect to the coagulation factor serine proteases and with respect to the fibrinolytic system serine proteases are evaluated as well as their substantial lack of interference with serine proteases of the fibrinolytic system. Thrombin inhibitors preferably should spare fibrinolysis induced by urokinase, tissue plasminogen activator (t-PA) and streptokinase. This would be important to the therapeutic use of such agents as an adjunct to streptokinase, t-PA or urokinase thrombolytic therapy and to the use of such agents as an endogenous fibrinolysis-sparing (with respect to t-PA and urokinase) antithrombotic agent. In addition to the lack of interference with the amidase activity of the fibrinolytic proteases, such fibrinolytic system sparing can be studied by the use of human plasma clots and their lysis by the respective fibrinolytic plasminogen activators.
(§2) Human factors X, Xa, IXa, XIa, and XIIa are purchased from Enzyme Research Laboratories, South Bend, Ind.; human urokinase from Leo Pharmaceuticals, Denmark; and recombinant activated Protein C (aPC) is prepared at Eli Lilly and Co. substantially according to U.S. Pat. No. 4,981,952 incorporated by reference herein in its entirety. Chromogenic substrates: N--Benzoyl--Ile--Glu--Gly--Arg--p--nitroanilide (for factor Xa); N--Cbz--D--Arg--Gly--Arg--p--nitroanilide (for factor IXa assay as the factor Xa substrate); Pyroglutamyl--Pro--Arg--p--nitroanilide (for Factor XIa and for aPC); H--D--Pro--Phe--Arg--p--nitroanilide (for factor XIIa); and Pyroglutamyl--Gly--Arg--p--nitroanilide (for urokinase); are purchased from KabiVitrum, Stockholm, Sweden, or from Midwest Biotech, Fishers, Indiana. Bovine trypsin is purchased from Worthington Biochemicals, Freehold, N.J., and human plasma kallikrein from Kabi Vitrum, Stockholm, Sweden. Chromogenic substrate H--D--Pro--Phe--Arg--p--nitroanilide for plasma kallikrein is purchased from Kabi Vitrum, Stockholm, Sweden. N--Benzoyl--Phe--Val--Arg--p--nitroanilide, the substrate for human thrombin and for trypsin, is synthesized according to procedures described above for the compounds of the present invention, using known methods of peptide coupling from commercially available reactants or purchased from Midwest Biotech, Fishers, Ind.

In another assay the target is T2, Human plasmin (Homo sapiens, UniProt P00747).
T2 construct: Human plasmin is purchased from Boehringer Mannheim; purchased Boehringer Mannheim, Indianapolis, Indiana
T2 sequence (P00747 581-810 limits assumed): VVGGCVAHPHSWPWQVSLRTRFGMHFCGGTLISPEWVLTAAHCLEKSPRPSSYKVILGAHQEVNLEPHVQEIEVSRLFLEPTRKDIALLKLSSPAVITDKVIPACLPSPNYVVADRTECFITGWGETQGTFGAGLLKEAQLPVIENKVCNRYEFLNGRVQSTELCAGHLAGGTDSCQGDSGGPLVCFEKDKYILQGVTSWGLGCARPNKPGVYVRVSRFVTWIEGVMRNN
T2 sequence (P00747 97-580 partner limits assumed): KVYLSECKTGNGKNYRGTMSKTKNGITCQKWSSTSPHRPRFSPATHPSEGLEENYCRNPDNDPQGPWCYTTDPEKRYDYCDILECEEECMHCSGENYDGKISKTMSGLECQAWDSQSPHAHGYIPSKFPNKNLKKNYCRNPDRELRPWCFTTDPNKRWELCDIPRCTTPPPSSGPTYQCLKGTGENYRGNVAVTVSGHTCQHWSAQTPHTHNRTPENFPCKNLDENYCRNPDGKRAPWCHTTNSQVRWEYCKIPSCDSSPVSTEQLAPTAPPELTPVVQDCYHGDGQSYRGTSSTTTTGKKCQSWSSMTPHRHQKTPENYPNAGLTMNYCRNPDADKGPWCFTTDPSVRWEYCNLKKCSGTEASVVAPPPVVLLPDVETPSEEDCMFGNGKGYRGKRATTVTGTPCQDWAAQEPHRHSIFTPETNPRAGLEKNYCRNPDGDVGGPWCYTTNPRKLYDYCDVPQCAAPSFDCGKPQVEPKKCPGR
Briefly: Fibrinolytic protease selectivity, Kass, plasmin chromogenic assay. The assay is classed as biochemical. The following applies: apparent association constant. The method, then: as §1
(§3) Human plasmin is purchased from Boehringer Mannheim, Indianapolis, Indiana; nt-PA is purchased as single chain activity reference from American Diagnostica, Greenwich, Conn.; modified-t-PA6 (mt-PA6) is prepared at Eli Lilly and Company by procedure known in the art (See, Burck, et al., J. Biol. Chem., 265, […] (1990). Plasmin chromogenic substrate H--D--Val--Leu--Lys--p--nitroanilide and tissue plasminogen activator (t-PA) substrate H--D--Ile--Pro--Arg--p--nitroanilide are purchased from Kabi Vitrum, Stockholm, Sweden.

Assay [1] addresses T3, tissue plasminogen activator (t-PA) (Homo sapiens, UniProt P00750).
T3 construct: purchased American Diagnostica, Greenwich, Conn
The assay can be described thus: Fibrinolytic protease selectivity, Kass, t-PA chromogenic assay. The assay is classed as biochemical. Particulars: apparent association constant. The method, then:
as §1, §3

The next assay addresses T4, human thrombin (Homo sapiens, UniProt P00734).
T4 construct: purified human thrombin, Enzyme Research Laboratories; purchased Enzyme Research Laboratories, South Bend, Indiana
Briefly: Inhibition of amidase activity of thrombin (Kass), chromogenic substrate. The assay is classed as biochemical. The following applies: apparent association constant, mean over a range of concentrations. The method, then:
The assay is carried out by mixing 50 μL buffer (0.03 M Tris, 0.15 M NaCl, pH 7.4) with 25 μL of bovine thrombin or human thrombin solution (0.21 mg/mL of thrombostat bovine thrombin, Parke-Davis, or purified human thrombin, Enzyme Research Laboratories, South Bend, Indiana, at about 8 NIH units/mL, in the same buffer) and 25 μL of test compound in a solvent (in 50% aqueous methanol, v:v). The 150 μL of an aqueous solution of the chromogenic substrate (at 0.25 mg/mL) are added and the rates of hydrolysis of the substrate are measured by monitoring the reactions at 405 nm for the release of p-nitroaniline. Standard curves are constructed by plotting free thrombin concentration against hydrolysis rate. The hydrolysis rates observed with test compounds are then converted to "free thrombin" values in the respective assays by use of the standard curves. The bound thrombin (bound to test compound) is calculated by subtracting the amount of free thrombin observed in each assay from the known initial amount of thrombin used in the assay. The amount of free inhibitor in each assay is calculated by subtracting the number of moles of bound thrombin from the number of moles of added inhibitor (test compound).
The Kass value is the hypothetical equilibrium constant for the reaction between thrombin and the test compound (I). [formula]
Kass is calculated for a range of concentrations of test compounds and the mean value is reported in units of liter per mole.

Assay [2] deals with human plasma. The assay can be described thus: Human plasma anticoagulation, prothrombin time (PT). The following applies: concentration required to double the PT, linear extrapolation. The method, then:
(§4) Dog plasma and rat plasma is obtained from conscious mixed-breed hounds (either sex, Hazelton-LRE, Kalamazoo, Mich., U.S.A.) or from anesthetized male Sprague-Dawley rats (Harlan Sprague-Dawley, Inc., Indianapolis, Ind., U.S.A.) by venipuncture into 3.8 percent citrate. Fibrinogen is prepared from in-date ACD human blood as the fraction I-2 according to previous procedures and specifications. Smith, Biochem. J., 185, 1-11 (1980); and Smith, et al., Biochemistry, 11, 2958-2967 (1972). Human fibrinogen is also purchased as 98 percent pure/plasmin free from American Diagnostica, Greenwich, Conn. Coagulation reagents ACTIN, Thromboplastin, and Human plasma are from Baxter Healthcare Corp., Dade Division, Miami, Fla. Bovine thrombin from Parke-Davis ([…], Mich.) is used for coagulation assays in plasma.
(§5) Coagulation assay procedures are as previously described. Smith, et al., Thrombosis Research, 50, 163-174 (1988). A CoAScreener coagulation instrument (American LABor, Inc.) is used for all coagulation assay measurements. The prothrombin time (PT) is measured by adding 0.05 mL saline and 0.05 mL Thromboplastin-C reagent to 0.05 mL test plasma. The activated partial thromboplastin time (APTT) is measured by incubation of 0.05 mL test plasma with 0.05 mL Actin reagent for 120 seconds followed by 0.05 mL CaCl2 (0.02 M). The thrombin time (TT) is measured by adding 0.05 mL saline and 0.05 mL thrombin (10 NIH units/mL) to 0.05 mL test plasma. The compounds of formula I are added to human or animal plasma over a wide range of concentrations to determine prolongation effects on the APTT, PT, and TT assays. Linear extrapolations are performed to estimate the concentrations required to double the clotting time for each assay.

For assay [3], the system named is human plasma. The assay can be described thus: Human plasma anticoagulation, activated partial thromboplastin time (APTT). The following applies: concentration required to double the APTT, linear extrapolation. As for the experimental part: as §4, §5
Assay [4] concerns human plasma. The assay can be described thus: Human plasma anticoagulation, thrombin time (TT). Particulars: concentration required to double the thrombin time, linear extrapolation. The method, then:
as §4, §5

In another assay the target is T5, Bovine trypsin (Bos taurus, UniProt P00760).
T5 construct: purchased Worthington Biochemicals, Freehold, N.J
T5 sequence (P00760 24-246): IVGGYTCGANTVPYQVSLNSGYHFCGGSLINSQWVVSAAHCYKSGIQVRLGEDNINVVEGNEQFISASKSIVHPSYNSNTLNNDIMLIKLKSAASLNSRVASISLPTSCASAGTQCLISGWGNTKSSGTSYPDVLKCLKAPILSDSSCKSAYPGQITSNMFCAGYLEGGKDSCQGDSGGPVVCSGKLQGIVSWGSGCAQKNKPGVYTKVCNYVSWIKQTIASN
The assay can be described thus: Serine protease selectivity, Kass, trypsin chromogenic assay. The assay is classed as biochemical. Particulars: apparent association constant. The method, then: as §1, §2

T1 sequence (P00742 235-488 limits assumed): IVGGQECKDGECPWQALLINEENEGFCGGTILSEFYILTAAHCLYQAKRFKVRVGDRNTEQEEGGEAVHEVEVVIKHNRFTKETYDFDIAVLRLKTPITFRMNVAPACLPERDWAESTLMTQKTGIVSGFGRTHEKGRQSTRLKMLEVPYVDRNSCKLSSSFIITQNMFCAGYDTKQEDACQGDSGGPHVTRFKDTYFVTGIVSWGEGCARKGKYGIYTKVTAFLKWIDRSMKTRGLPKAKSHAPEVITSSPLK
T1 sequence (P00742 41-179 partner limits assumed): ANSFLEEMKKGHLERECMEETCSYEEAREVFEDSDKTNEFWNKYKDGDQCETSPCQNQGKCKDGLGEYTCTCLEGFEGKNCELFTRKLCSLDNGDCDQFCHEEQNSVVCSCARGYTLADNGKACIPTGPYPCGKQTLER
T3 sequence (P00750 36-562): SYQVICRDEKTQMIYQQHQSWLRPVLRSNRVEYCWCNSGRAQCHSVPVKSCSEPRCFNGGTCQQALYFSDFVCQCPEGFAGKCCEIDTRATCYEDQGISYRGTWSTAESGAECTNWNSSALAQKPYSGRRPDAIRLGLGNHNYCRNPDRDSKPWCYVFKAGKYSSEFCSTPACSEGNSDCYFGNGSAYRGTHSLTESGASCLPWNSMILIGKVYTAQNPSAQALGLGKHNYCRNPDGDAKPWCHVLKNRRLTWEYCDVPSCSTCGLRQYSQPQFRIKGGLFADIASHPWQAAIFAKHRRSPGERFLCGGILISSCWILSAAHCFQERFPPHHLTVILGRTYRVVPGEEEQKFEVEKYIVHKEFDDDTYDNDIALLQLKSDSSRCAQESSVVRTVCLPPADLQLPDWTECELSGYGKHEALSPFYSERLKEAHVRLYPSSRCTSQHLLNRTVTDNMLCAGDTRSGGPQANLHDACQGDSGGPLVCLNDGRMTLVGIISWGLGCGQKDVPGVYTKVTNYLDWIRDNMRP

As for `Cl.Cl.N=C(N)NCCC[C@@H](C=O)NC(=O)CN(CCc1ccccc1)C(=O)[C@@H]1CCCN1` [Example 19, L--Pro--N(CH2 CH2 Ph)Gly--ArgH.2HCl], the “Enzyme Kass Xa” value on factor Xa is 0.11 L/mol × 10^6. At Human plasmin, the “Enzyme Kass Plasmin” value is 0.22 L/mol × 10^6. In addition, the “Enzyme Kass t-PA” value in assay [1] is given as under 0.001 L/mol × 10^6. Besides, the “Enzyme Kass Human Thrombin” value on human thrombin turned out to be 0.64 L/mol × 10^6. Further, the “Human Plasma Anticoagulation 2 × Clotting time PT” value in the assay with human plasma [2] is recorded as 10,000 ng/mL. For the same compound, the “Human Plasma Anticoagulation 2 × Clotting time APTT” value with human plasma [3] is on record as 10,000 ng/mL. In addition, the “Human Plasma Anticoagulation 2 × Clotting time TT” value in the assay on human plasma [4] was 490 ng/mL. The “Enzyme Kass Trypsin” value at Bovine trypsin stood at 0.22 L/mol × 10^6.
As to `CNCC(=O)N(CCc1ccccc1)CC(=O)N[C@H](C=O)CCCNC(=N)N.Cl.Cl` [Example 17, Sar--N(CH2 CH2 Ph)Gly--ArgH.2HCl], on factor Xa, the “Enzyme Kass Xa” value came to 2.2 L/mol × 10^6. The “Enzyme Kass Plasmin” value at Human plasmin was found to be 0.20 L/mol × 10^6. The “Enzyme Kass t-PA” value in assay [1] was found to be 0.001 L/mol × 10^6. Moreover, the “Enzyme Kass Human Thrombin” value on human thrombin turned out to be 2.9 L/mol × 10^6. The “Human Plasma Anticoagulation 2 × Clotting time PT” value in the assay on human plasma [2] was 2,700 ng/mL. Besides, in the assay on human plasma [3], the “Human Plasma Anticoagulation 2 × Clotting time APTT” value was 2,200 ng/mL. In the assay with human plasma [4], the “Human Plasma Anticoagulation 2 × Clotting time TT” value is 150 ng/mL. Moreover, the “Enzyme Kass Trypsin” value at Bovine trypsin was 0.38 L/mol × 10^6.
For the compound `CC(C)N(CC(=O)NC(C=O)CCCNC(=N)N)C(=O)C1CCCCN1.Cl.Cl` [Example 4, D--hPro--N(i--Pr)Gly--ArgH.2HCl], the “Enzyme Kass Xa” value on factor Xa turned out to be 0.074 L/mol × 10^6. The “Enzyme Kass Plasmin” value at Human plasmin is 0.031 L/mol × 10^6. Moreover, the “Enzyme Kass t-PA” value in assay [1] worked out at 0.001 L/mol × 10^6. Moreover, on human thrombin, the “Enzyme Kass Human Thrombin” value was determined as 9.7 L/mol × 10^6. Further, the “Human Plasma Anticoagulation 2 × Clotting time PT” value in the assay with human plasma [2] is recorded as 14,000 ng/mL. In addition, in the assay with human plasma [3], the “Human Plasma Anticoagulation 2 × Clotting time APTT” value is 12,000 ng/mL. In addition, the “Human Plasma Anticoagulation 2 × Clotting time TT” value with human plasma [4] is 230 ng/mL. Also, the “Enzyme Kass Trypsin” value at Bovine trypsin is 0.5 L/mol × 10^6.
`Cl.Cl.N=C(N)NCCC[C@@H](C=O)NC(=O)CN(CCCC(=O)O)C(=O)[C@H]1CCCCN1` [Example 14, D--hPro--N(CH2 CH2 CH2 COOH)Gly--ArgH.2HCl]: at factor Xa, the “Enzyme Kass Xa” value was determined as 0.062 L/mol × 10^6. Besides, on Human plasmin, the “Enzyme Kass Plasmin” value is listed as 0.016 L/mol × 10^6. In assay [1], the “Enzyme Kass t-PA” value is on record as 0.001 L/mol × 10^6. In addition, on human thrombin, the “Enzyme Kass Human Thrombin” value is recorded as 1.2 L/mol × 10^6. Further, the “Human Plasma Anticoagulation 2 × Clotting time PT” value in the assay on human plasma [2] is listed as 30,000 ng/mL. In addition, in the assay on human plasma [3], the “Human Plasma Anticoagulation 2 × Clotting time APTT” value is recorded as 20,000 ng/mL. For the same compound, the “Human Plasma Anticoagulation 2 × Clotting time TT” value in the assay with human plasma [4] is listed as 700 ng/mL. The “Enzyme Kass Trypsin” value at Bovine trypsin turned out to be 0.60 L/mol × 10^6.
Turning to `Cl.Cl.N=C(N)NCCC[C@@H](C=O)NC(=O)CN(CCC(=O)O)C(=O)[C@H]1CCCCN1` [Example 13, D--hPro--N(CH2 CH2 COOH)Gly--ArgH.2HCl], the “Enzyme Kass Xa” value on factor Xa is on record as 0.051 L/mol × 10^6. The “Enzyme Kass Plasmin” value at Human plasmin was 0.015 L/mol × 10^6. Also, in assay [1], the “Enzyme Kass t-PA” value turned out to be 0.001 L/mol × 10^6. The “Enzyme Kass Human Thrombin” value at human thrombin was 0.83 L/mol × 10^6. Also, the “Human Plasma Anticoagulation 2 × Clotting time PT” value in the assay with human plasma [2] is 27,000 ng/mL. For the same compound, the “Human Plasma Anticoagulation 2 × Clotting time APTT” value in the assay with human plasma [3] is reported as 21,000 ng/mL. In addition, in the assay on human plasma [4], the “Human Plasma Anticoagulation 2 × Clotting time TT” value is 800 ng/mL. Further, the “Enzyme Kass Trypsin” value at Bovine trypsin worked out at 0.48 L/mol × 10^6.
Regarding `Cl.Cl.NC(N)=NCCC[C@@H](C=O)NC(=O)CN(CCc1ccccc1)C(=O)[C@H]1CCCN1` [Example 18, D--Pro--N(CH2 CH2 Ph)Gly--ArgH.2HCl], on factor Xa, the “Enzyme Kass Xa” value was 0.47 L/mol × 10^6. Also, the “Enzyme Kass Plasmin” value at Human plasmin is on record as 0.34 L/mol × 10^6. The “Enzyme Kass t-PA” value in assay [1] stood at 0.001 L/mol × 10^6. Further, the “Enzyme Kass Human Thrombin” value on human thrombin is on record as 5.1 L/mol × 10^6. In the assay with human plasma [2], the “Human Plasma Anticoagulation 2 × Clotting time PT” value is given as 3,900 ng/mL. The “Human Plasma Anticoagulation 2 × Clotting time APTT” value with human plasma [3] is recorded as 3,300 ng/mL. In addition, in the assay on human plasma [4], the “Human Plasma Anticoagulation 2 × Clotting time TT” value is 170 ng/mL. Also, the “Enzyme Kass Trypsin” value at Bovine trypsin stood at 1.1 L/mol × 10^6.
